The values that follow come from PMC4744035, “In Vivo, In Vitro, and In Silico Characterization of Peptoids as Antimicrobial Agents” (PLoS ONE, 2016).

Series [1] deals with E. coli 63103 (ESBL). In words: microbe, parasite or virus in culture. The protocol: (§1) The MICs of test agents were measured using a modified broth micro-dilution method in Difco Mueller Hinton medium, on a panel of bacterial pathogens that were both susceptible and resistant to common antibiotics (S1 File). Briefly, serial dilutions were performed in 0.01% acetic acid containing 0.2% bovine serum albumin at 10-fold the desired final concentration. Ten μL of the 10-fold concentrated test reagents were added to each well of a 96-well polypropylene microtitre plate containing 90 μL of Mueller Hinton media per well. Bacteria were added to the plate from an overnight culture at a final concentration of 2–7 x 10^5 CFU/mL and incubated overnight at 37°C. The MIC is defined as the concentration at which no growth was observed.
(§2) Screening of peptoid antimicrobial activity against a panel of multidrug resistant superbugs was done according to the protocol described in the manuscript. The bacterial strains used in this panel included; P. aeruginosa PAO1 strain H103 [1], P. maltophilia ATCC#13637, S. aureus ATCC#25923 [1], E. faecalis ATCC#29212 [2], and E. cloacae 218R, constitutively expressing Class C chromosomal β-lactamase, were from the Hancock lab strains collection. An MRSA clinical isolate was kindly provided by Anthony Chow (Vancouver General Hospital, Vancouver, Canada). Two Klebsiella pneumoniae and two E. coli clinical isolates expressing extended spectrum β-lactamases (ESBL) were kindly provided by George Zhanel (Health Sciences Centre, Winnipeg, Canada). Vancomycin-resistant clinical isolates of Enterococcus faecalis and E. faecium were obtained from Ana M. Paccagnella (BC Centre for Disease Control, Vancouver, Canada). Three clinical isolates (#9, #198 and #213) of multi-drug resistant P. aeruginosa, were kindly provided by Carlos Kiffer (University of São Paulo, Brazil). […] Three P. aeruginosa clinical isolates of the Liverpool epidemic strain (LES) (H1027, H1030 and LES400) were all kindly provided by Craig Winstanley (University of Liverpool, UK). […] All tested bacterial strains were categorized as biohazard level 2 pathogens.

The test system of series [2] is K. pneumonia 63575 (ESBL). In words: microbe, parasite or virus in culture. The method, then: as §1, §2
The test system of series [3] is E. coli 64771 (ESBL). In words: microbe, parasite or virus in culture. The method, then: as §1, §2
Series [4] deals with P. aeruginosa 213 (MDR). The experiment in a line: microbe, parasite or virus in culture. The method, then: as §1, §2
Series [5] concerns P. aeruginosa H1030 (MDR). The experiment in a line: microbe, parasite or virus in culture. To be noted: P. aeruginosa H1030 (MDR). The protocol: as §1, §2
The subject of series [6] is E. cloacae 218R Class C β-lactamase. In words: microbe, parasite or virus in culture. The protocol:
as §1, §2

The test system of series [7] is P. aeruginosa LES400 (MDR). In words: microbe, parasite or virus in culture. The protocol:
as §1, §2

The subject of series [8] is K. pneumonia 61962 (ESBL). In words: microbe, parasite or virus in culture. The method, then: as §1, §2
Series [9] has as its system E. faecalis F43559 (VRE). The experiment in a line: microbe, parasite or virus in culture. The protocol:
as §1, §2

In series [10] the test system is E. faecalis ATCC29212. In words: microbe, parasite or virus in culture. The settings on record: ATCC29212. The protocol: as §1, §2
Series [11] relates to E. faecalis W61950 (VRE). In words: microbe, parasite or virus in culture. The method, then: as §1, §2
Series [12] deals with P. aeruginosa 9 (MDR). In words: microbe, parasite or virus in culture. The method, then: as §1, §2
Series [13] relates to S. aureus ATCC25923. In words: microbe, parasite or virus in culture. To be noted: ATCC25923. The method, then:
as §1, §2

Series [14] concerns P. aeruginosa H103 (wild type). In words: microbe, parasite or virus in culture. The protocol:
as §1, §2

For series [15], the system named is E. faecium mic80 (VRE). In words: microbe, parasite or virus in culture. The protocol:
as §1, §2

Series [16] relates to P. aeruginosa 198 (MDR). In words: microbe, parasite or virus in culture. The protocol:
as §1, §2

Series [17] relates to P. maltophilia ATCC13637. The experiment in a line: microbe, parasite or virus in culture. To be noted: ATCC13637. The protocol: as §1, §2
In series [18] the test system is P. aeruginosa H1027 (MDR). In words: microbe, parasite or virus in culture. The method, then: as §1, §2
In series [19] the test system is E. faecium T62764 (VRE). In words: microbe, parasite or virus in culture. The protocol: as §1, §2
Series [20] relates to S. aureus C623 (MRSA). In words: microbe, parasite or virus in culture. The protocol:
as §1, §2

The test system of series [21] is E. coli ATCC 35218. It is filed as cell-based. The method, then:
MICs against B. subtilis and E. coli screening bacterial strains were determined using serial dilution in 96-well microtiter plates in accordance with CLSI M7-A6 protocols. Briefly, peptoid solution in cation-adjusted Mueller-Hinton broth was prepared by 2:1 serial dilution with a total volume of 50 µL per well. In experimental wells, 50 µL of bacterial inoculums (1 x 10^6 CFU/mL) were added to the peptoid solutions. Positive controls consisted of 50 µL inoculums added to 50 µL cation-adjusted Mueller-Hinton broth containing no peptoid, while negative controls contained only cation-adjusted Mueller-Hinton broth. […] Experiments were reproducible among three independent replicates, each consisting of two parallel trials.

Series [22] deals with erythrocytes. In words: Hemolytic activity (HD10/HD50). It is filed as cell-based. The source says:
Table 1 Characteristics of antimicrobial peptoids, screened for activity against B. subtilis and E. coli bacterial strains. | column: HD10 / HD50

Each structure is given as a SMILES string. Converted amounts (≈) assume the structure as drawn. Like-named read-outs stand apart in the source and are kept apart here. Numbered stars: 1 amine (or outer) side, 2 acyl side, 3 side chain; on linkers, the order of the positions; unused ones are H or OH. Square brackets hold non-standard residues; d marks the D form. Peptide text beside a SMILES is read from it. X2 = C[C@@H](c1cccc2ccccc12)N(CC(=O)[*:2])[*:1]; Nspe = C[C@H](NCC(=O)O)c1ccccc1; Nlys = NCCCCNCC(=O)O

As to `C[C@@H](c1ccccc1)N(CC(N)=O)C(=O)CN(C(=O)CN(CCCCN)C(=O)CN(Cc1ccccc1)C(=O)CN(Cc1ccccc1)C(=O)CN(CCCCN)C(=O)CN(C(=O)CN(C(=O)CN(CCCCN)C(=O)CN(Cc1ccccc1)C(=O)CN(Cc1ccccc1)C(=O)CNCCCCN)[C@@H](C)c1ccccc1)[C@@H](C)c1ccccc1)[C@@H](C)c1ccccc1` [1-Npm2,3,8,9, H-(NLys-Npm-Npm-NLys-Nspe-Nspe)2-NH2], the MIC in series [1] (63103 (ESBL)) turned out to be 8 µg/mL (≈ 4.54 µM); in series [2], 16 µg/mL (≈ 9.07 µM); in series [3] (64771 (ESBL)), 4 µg/mL (≈ 2.27 µM); in series [4] (213 (MDR)), 4 µg/mL (≈ 2.27 µM); in [5], 16 µg/mL (≈ 9.07 µM); in [6] (218R Class C β-lactamase) it was 8 µg/mL (≈ 4.54 µM). The MIC was 4 µg/mL (≈ 2.27 µM) in series [7] (LES400 (MDR)); 32 µg/mL (≈ 18.1 µM) in [8]; 8 µg/mL (≈ 4.54 µM) in series [9] (F43559 (VRE)); 4 µg/mL (≈ 2.27 µM) in [10]; 8 µg/mL (≈ 4.54 µM) in series [11] (W61950 (VRE)); 64 µg/mL (≈ 36.3 µM) in series [12] (9 (MDR)). In addition, the MIC stood at 2 µg/mL (≈ 1.13 µM) in series [13]; 4 µg/mL (≈ 2.27 µM) in series [14] (H103 (wild type)); 4 µg/mL (≈ 2.27 µM) in series [15] (mic80 (VRE)); 8 µg/mL (≈ 4.54 µM) in [16] (198 (MDR)); 1 µg/mL (≈ 0.567 µM) in series [17]; 2 µg/mL (≈ 1.13 µM) in series [18] (H1027 (MDR)). Further, the MIC in series [19] (T62764 (VRE)) is 1 µg/mL (≈ 0.567 µM); in [20] (C623) it was 2 µg/mL (≈ 1.13 µM). Further, the “MIC E. coli” value in series [21] was determined as 6.3 µM (≈ 11.1 µg/mL). Moreover, the “HD10 (hemolytic activity)” value in [22] is 39. The “HD50 (hemolytic activity)” value in [22] is on record as more than 200.

With `C[C@@H](c1ccccc1)N(CC(=O)N(CCCCN)CC(=O)N(CC(=O)N(CC(=O)N(CCCCN)CC(=O)N(CC(=O)N(CC(=O)N(CCCCN)CC(=O)N(CC(=O)N(CC(N)=O)[C@@H](C)c1cccc2ccccc12)[C@@H](C)c1ccccc1)[C@@H](C)c1ccccc1)[C@@H](C)c1ccccc1)[C@@H](C)c1cccc2ccccc12)[C@@H](C)c1ccccc1)C(=O)CN(C(=O)CNCCCCN)[C@@H](C)c1ccccc1` [1-Nsna6,12, H-(NLys-Nspe-Nspe-NLys-Nspe-Nsna)2-NH2] (H-[Nlys][Nspe][Nspe][Nlys][Nspe][X2][Nlys][Nspe][Nspe][Nlys][Nspe][X2]-NH2), the MIC in series [1] (63103 (ESBL)) came out at 16 µg/mL (≈ 8.34 µM); in series [2] it was 32 µg/mL (≈ 16.7 µM); in series [3] (64771 (ESBL)), 8 µg/mL (≈ 4.17 µM); in series [4] (213 (MDR)), 8 µg/mL (≈ 4.17 µM); in [5], 32 µg/mL (≈ 16.7 µM); in series [6] (218R Class C β-lactamase) it was 32 µg/mL (≈ 16.7 µM). Besides, the MIC in series [7] (LES400 (MDR)) is 8 µg/mL (≈ 4.17 µM); in [8], 64 µg/mL (≈ 33.3 µM); in series [9] (F43559 (VRE)), 8 µg/mL (≈ 4.17 µM); in series [10], 4 µg/mL (≈ 2.08 µM); in series [11] (W61950 (VRE)) it was 16 µg/mL (≈ 8.34 µM); in series [12] (9 (MDR)), 128 µg/mL (≈ 66.7 µM). Further, the MIC in series [13] was 4 µg/mL (≈ 2.08 µM); in [14] (H103 (wild type)) it was 4 µg/mL (≈ 2.08 µM); in [15] (mic80 (VRE)) it was 4 µg/mL (≈ 2.08 µM); in series [16] (198 (MDR)), 16 µg/mL (≈ 8.34 µM); in series [17], 1 µg/mL (≈ 0.521 µM); in series [18] (H1027 (MDR)), 2 µg/mL (≈ 1.04 µM). The MIC in series [19] (T62764 (VRE)) is 2 µg/mL (≈ 1.04 µM); in series [20] (C623), 4 µg/mL (≈ 2.08 µM).

Turning to `CC(C)(O/N=C(\C(=O)N[C@@H]1C(=O)N2C(C(=O)[O-])=C(C[n+]3ccccc3)CS[C@H]12)c1csc(N)n1)C(=O)O` [Ceftazidime, reference compound], the MIC in [1] (Escherichia coli) was 128 µg/mL (≈ 234 µM); in series [2] (Klebsiella pneumoniae) it was more than 128 µg/mL; in [3] (Escherichia coli), more than 128 µg/mL; in series [4] (Pseudomonas aeruginosa), more than 128 µg/mL; in series [6] (Enterobacter cloacae), 32 µg/mL (≈ 58.5 µM); in series [7] (Pseudomonas aeruginosa), 32 µg/mL (≈ 58.5 µM). The MIC in series [8] (Klebsiella pneumoniae) was more than 128 µg/mL; in series [9] (Enterococcus faecalis, VRE), more than 128 µg/mL; in [10] (Enterococcus faecalis), 128 µg/mL (≈ 234 µM); in series [11] (Enterococcus faecalis, VRE), more than 128 µg/mL; in series [12] (Pseudomonas aeruginosa) it was more than 128 µg/mL; in series [13] (Staphylococcus aureus), 16 µg/mL (≈ 29.3 µM). The MIC in [14] (Pseudomonas aeruginosa) is 2 µg/mL (≈ 3.66 µM); in [15] (Enterococcus faecium, VRE), more than 128 µg/mL; in [16] (Pseudomonas aeruginosa), 128 µg/mL (≈ 234 µM); in series [17] (Stenotrophomonas maltophilia) it was 0.3 µg/mL (≈ 0.549 µM); in series [18] (Pseudomonas aeruginosa), 128 µg/mL (≈ 234 µM); in series [19] (Enterococcus faecium, VRE), more than 128 µg/mL. This molecule also returned an MIC in series [20] (Staphylococcus aureus, MRSA) of 64 µg/mL (≈ 117 µM).
